Test results as given in patent US20150087627A1, “COMBINATION OF KINASE INHIBITORS AND USES THEREOF” (Intellikine LLC, priority 2011, published 2015).

What was measured:
Type in all cases: biochemical
PI3K α (p110α/p85α) = target: T1, PI3K α (p110α/p85α) (Homo sapiens, UniProt P42336); assay: PI 3-Kinase (human) HTRF assay, PI3K α; conditions: read-out: PI3K α IC50
T1 construct: purchased Upstate / Millipore Corporation

PI3K β (p110β/p85α) = target: T2, PI3K β (p110β/p85α) (Homo sapiens, UniProt P42338); assay: PI 3-Kinase (human) HTRF assay, PI3K β; conditions: read-out: PI3K β IC50
T2 construct: purchased Upstate / Millipore Corporation

PI3K γ (p110γ) = target: T3, PI3K γ (p110γ) (Homo sapiens, UniProt P48736); assay: PI 3-Kinase (human) HTRF assay, PI3K γ; conditions: read-out: PI3K γ IC50
T3 construct: purchased Upstate / Millipore Corporation

PI3K δ = target: T4, PI3K δ (Homo sapiens, UniProt O00329); assay: PI 3-Kinase (human) HTRF assay, PI3K δ; conditions: read-out: PI3K δ IC50
T4 construct: purchased Upstate / Millipore Corporation
T4 sequence (O00329 whole entry): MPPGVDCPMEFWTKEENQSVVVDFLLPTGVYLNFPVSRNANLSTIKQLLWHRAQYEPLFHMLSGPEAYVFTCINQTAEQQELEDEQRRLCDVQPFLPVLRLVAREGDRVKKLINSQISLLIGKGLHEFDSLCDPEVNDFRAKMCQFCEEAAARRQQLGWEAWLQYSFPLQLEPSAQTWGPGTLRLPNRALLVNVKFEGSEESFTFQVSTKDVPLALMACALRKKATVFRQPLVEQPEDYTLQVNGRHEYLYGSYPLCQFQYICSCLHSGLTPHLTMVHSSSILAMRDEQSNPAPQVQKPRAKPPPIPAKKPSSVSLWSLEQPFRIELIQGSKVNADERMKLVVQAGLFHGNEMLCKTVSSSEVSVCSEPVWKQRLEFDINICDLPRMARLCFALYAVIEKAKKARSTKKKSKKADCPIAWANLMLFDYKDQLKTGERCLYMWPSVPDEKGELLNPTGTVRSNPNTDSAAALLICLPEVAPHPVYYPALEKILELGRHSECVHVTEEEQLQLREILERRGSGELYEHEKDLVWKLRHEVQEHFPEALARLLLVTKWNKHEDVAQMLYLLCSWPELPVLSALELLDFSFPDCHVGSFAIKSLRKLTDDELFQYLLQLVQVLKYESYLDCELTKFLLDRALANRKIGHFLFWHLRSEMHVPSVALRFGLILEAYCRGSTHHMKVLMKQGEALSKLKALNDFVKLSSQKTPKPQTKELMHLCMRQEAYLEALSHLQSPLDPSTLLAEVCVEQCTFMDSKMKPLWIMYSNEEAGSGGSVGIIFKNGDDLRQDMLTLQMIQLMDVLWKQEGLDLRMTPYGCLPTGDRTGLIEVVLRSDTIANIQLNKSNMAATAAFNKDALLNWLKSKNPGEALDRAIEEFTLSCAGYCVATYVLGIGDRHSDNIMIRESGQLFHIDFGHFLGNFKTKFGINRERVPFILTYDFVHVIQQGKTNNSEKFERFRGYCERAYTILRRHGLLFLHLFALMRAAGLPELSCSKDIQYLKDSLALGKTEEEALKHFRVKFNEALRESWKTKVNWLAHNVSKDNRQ
T4 sequence (P27986 whole entry partner): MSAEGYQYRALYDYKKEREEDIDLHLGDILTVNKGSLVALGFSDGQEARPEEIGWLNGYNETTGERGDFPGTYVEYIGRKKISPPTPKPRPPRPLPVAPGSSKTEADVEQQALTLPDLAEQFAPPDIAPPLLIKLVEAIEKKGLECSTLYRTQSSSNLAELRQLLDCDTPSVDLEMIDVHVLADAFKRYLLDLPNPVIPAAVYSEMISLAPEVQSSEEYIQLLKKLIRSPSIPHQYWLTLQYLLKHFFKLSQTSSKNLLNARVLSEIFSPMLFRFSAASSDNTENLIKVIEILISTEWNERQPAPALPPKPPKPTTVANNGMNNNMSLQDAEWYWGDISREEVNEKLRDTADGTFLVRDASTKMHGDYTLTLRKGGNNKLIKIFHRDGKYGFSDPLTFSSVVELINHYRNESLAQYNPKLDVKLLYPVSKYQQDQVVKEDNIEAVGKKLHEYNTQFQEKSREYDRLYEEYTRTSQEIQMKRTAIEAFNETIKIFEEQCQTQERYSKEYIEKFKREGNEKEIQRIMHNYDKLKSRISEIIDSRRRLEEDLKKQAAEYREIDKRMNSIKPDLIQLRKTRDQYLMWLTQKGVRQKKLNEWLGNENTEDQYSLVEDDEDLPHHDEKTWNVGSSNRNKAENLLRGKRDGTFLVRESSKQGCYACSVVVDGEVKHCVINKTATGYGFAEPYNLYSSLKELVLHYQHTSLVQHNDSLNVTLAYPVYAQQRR

T3 sequence (P48736 whole entry): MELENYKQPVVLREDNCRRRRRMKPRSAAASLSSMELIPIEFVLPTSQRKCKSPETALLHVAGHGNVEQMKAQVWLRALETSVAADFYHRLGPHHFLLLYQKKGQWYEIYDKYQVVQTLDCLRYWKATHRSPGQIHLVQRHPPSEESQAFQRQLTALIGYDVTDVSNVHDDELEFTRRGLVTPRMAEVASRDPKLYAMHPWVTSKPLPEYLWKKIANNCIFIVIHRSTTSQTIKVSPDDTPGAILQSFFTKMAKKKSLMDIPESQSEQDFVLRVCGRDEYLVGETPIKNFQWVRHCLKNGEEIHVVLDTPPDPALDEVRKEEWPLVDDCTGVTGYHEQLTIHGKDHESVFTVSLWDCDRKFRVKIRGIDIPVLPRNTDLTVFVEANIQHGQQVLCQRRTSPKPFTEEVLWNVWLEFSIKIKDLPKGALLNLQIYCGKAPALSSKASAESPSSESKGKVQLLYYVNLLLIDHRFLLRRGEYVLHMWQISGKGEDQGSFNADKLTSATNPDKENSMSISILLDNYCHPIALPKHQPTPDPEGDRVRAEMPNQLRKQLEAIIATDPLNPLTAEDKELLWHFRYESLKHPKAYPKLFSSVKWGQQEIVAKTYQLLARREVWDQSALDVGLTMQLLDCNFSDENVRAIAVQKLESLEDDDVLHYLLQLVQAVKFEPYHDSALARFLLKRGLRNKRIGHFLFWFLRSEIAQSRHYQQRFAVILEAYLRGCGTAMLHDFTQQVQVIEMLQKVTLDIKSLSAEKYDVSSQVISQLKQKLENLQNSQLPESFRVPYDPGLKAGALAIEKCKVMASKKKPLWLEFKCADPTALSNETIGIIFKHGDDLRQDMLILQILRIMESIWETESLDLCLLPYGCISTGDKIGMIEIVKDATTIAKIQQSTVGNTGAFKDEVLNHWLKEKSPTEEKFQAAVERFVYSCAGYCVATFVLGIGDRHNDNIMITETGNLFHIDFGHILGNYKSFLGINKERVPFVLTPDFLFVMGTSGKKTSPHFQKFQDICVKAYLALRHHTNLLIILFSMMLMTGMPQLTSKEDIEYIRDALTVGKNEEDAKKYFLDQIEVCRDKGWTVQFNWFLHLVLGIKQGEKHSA
T1 sequence (P42336 whole entry): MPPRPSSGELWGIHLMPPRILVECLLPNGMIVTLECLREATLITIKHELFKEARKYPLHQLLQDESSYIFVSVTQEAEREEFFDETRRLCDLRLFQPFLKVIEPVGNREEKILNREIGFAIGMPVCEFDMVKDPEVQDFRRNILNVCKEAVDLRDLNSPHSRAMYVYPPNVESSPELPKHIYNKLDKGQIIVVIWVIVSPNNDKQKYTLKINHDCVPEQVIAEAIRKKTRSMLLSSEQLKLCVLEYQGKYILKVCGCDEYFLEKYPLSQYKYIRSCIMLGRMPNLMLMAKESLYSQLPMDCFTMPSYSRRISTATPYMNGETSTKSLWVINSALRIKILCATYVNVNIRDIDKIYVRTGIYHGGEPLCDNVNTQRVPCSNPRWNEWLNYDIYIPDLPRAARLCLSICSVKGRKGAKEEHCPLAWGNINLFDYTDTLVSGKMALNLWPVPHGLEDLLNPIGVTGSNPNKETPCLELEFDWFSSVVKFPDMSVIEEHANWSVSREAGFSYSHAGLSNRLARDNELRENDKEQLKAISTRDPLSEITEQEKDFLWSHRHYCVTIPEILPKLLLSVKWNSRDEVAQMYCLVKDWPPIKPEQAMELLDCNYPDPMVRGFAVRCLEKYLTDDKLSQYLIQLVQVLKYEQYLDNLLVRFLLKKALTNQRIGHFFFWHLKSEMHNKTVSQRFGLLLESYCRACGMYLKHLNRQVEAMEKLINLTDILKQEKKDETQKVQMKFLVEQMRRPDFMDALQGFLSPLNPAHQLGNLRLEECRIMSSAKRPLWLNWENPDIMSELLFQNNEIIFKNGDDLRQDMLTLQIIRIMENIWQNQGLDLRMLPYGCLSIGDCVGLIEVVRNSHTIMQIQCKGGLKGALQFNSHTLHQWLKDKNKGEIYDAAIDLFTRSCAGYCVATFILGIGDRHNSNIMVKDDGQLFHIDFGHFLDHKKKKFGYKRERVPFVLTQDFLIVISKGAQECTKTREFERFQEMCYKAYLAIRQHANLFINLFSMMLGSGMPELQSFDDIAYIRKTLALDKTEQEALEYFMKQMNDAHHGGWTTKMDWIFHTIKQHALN
T1 sequence (P27986 whole entry partner): as the sequence (P27986 whole entry partner) above
T2 sequence (P42338 whole entry): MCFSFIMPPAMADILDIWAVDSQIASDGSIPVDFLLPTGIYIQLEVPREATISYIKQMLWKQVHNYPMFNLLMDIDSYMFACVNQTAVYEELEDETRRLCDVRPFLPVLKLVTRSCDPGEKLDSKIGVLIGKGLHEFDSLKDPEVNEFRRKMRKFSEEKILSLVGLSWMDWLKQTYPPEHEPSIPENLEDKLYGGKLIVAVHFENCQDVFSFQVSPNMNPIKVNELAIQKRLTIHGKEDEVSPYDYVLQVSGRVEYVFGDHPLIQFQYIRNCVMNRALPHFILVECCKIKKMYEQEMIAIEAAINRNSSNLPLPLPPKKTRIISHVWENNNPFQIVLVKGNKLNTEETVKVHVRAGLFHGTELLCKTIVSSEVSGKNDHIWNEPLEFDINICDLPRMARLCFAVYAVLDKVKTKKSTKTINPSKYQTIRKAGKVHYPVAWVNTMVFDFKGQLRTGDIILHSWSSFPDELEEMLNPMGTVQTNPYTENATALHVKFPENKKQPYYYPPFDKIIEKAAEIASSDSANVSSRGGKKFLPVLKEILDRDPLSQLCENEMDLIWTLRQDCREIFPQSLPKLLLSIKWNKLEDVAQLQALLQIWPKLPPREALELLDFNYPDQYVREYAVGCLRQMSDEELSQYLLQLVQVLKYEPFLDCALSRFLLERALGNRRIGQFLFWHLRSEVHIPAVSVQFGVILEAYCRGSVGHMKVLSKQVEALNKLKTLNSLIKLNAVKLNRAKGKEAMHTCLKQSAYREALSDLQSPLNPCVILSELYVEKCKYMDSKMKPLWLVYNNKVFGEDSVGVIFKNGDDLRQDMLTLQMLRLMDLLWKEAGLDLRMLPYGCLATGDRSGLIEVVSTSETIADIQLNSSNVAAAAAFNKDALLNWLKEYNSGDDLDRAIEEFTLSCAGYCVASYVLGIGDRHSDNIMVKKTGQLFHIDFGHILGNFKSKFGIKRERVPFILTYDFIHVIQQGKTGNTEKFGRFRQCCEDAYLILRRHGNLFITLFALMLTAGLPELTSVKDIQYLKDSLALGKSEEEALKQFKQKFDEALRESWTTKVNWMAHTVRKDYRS
T2 sequence (P27986 whole entry partner): as the sequence (P27986 whole entry partner) above

| SMILES | IC50 (PI3K α (p110α/p85α)) | IC50 (PI3K β (p110β/p85α)) | IC50 (PI3K γ (p110γ)) | IC50 (PI3K δ) |
| --- | --- | --- | --- | --- |
| Nc1nc2cc(-c3ccc4ncc(NCCCN5CCOCC5)nc4c3)ccc2o1 [Compound 222] | < 100 nM | < 1 µM | < 1000 nM | < 0.1 µM |
| Cc1ccn(C2CCN(c3cnc4ccc(-c5ccc6oc(N)nc6c5)cc4n3)CC2)n1 [Compound 223] | < 100 nM | > 10 µM | < 1000 nM | > 10 µM |
| CCN(CC)CCn1cnc2ccc(-c3ccc4oc(N)nc4c3)cc2c1=O [Compound 224] | < 10000 nM | > 10 µM | > 10000 nM | > 10 µM |
| Nc1nc2cc(-c3ccc4ncc(N5CCN(C(=O)[C@H]6CCCN6)CC5)nc4c3)ccc2o1 [Compound 225] | < 100 nM | < 0.1 µM | < 100 nM | < 0.1 µM |
| Nc1nc2cc(-c3ccc4ncc(N5CCN(C(=O)C6(N)CC6)CC5)nc4c3)ccc2o1 [Compound 226] | < 1000 nM | > 10 µM | < 10000 nM | < 10 µM |
| Nc1nc2ccc(-c3ccc4nnc(-c5ccncc5)n4c3)cc2o1 [Compound 230] | < 10000 nM | < 1 µM | < 1000 nM | < 10 µM |
| COc1nc(-c2ccc3oc(N)nc3c2)cnc1N [Compound 238] | < 1000 nM | < 1 µM | < 1000 nM | < 10 µM |
| CC(=O)Nc1nc2ccc(-c3ccc4nc(N)oc4c3)cc2s1 [Compound 242] | < 100 nM | < 0.1 µM | < 100 nM | > 10 µM |
| Nc1nc2ccc(-c3ccc4nc(N)sc4c3)cc2o1 [Compound 243] | < 1000 nM | < 0.1 µM | < 100 nM | > 10 µM |
| Nc1cn2cc(-c3ccc4oc(N)nc4c3)ccc2n1 [Compound 245] | < 1000 nM | < 10 µM | < 1000 nM | > 10 µM |
| Nc1nc2ccc(-c3ccc4nc(N)oc4c3)cc2o1 [Compound 246] | > 10000 nM | > 10 µM | > 10000 nM | > 10 µM |
| Nc1cn2cc(-c3ccc4nc(N)oc4c3)ccc2n1 [Compound 247] | > 10000 nM | < 10 µM | < 10000 nM | > 10 µM |
| Nc1nc2cc(-c3ccc4sc(N)nc4c3)ccc2o1 [Compound 248] | < 10000 nM | < 1 µM | < 1000 nM | < 10 µM |
| Nc1nc2ccc(-c3ccc4sc(N)nc4c3)cc2o1 [Compound 249] | < 100 nM | < 0.1 µM | < 100 nM | < 1 µM |
| CC(=O)Nc1nc2cc(-c3ccc4oc(N)nc4c3)ccc2s1 [Compound 250] | > 10000 nM | > 10 µM | < 100 nM | > 10 µM |
| CC(=O)Nc1nc2cc(-c3ccc4nc(N)oc4c3)ccc2s1 [Compound 251] | < 100 nM | < 0.1 µM | < 100 nM | < 0.1 µM |
| Nc1nc2cc(-c3ccc4ncc(N5CC(C(=O)N6CCOCC6)C5)nc4c3)ccc2o1 [Compound 252] | > 10000 nM | < 10 µM | < 10000 nM | < 10 µM |
| CN1CCN(C(=O)C2CN(c3cnc4ccc(-c5ccc6oc(N)nc6c5)cc4n3)C2)CC1 [Compound 253] | > 10000 nM | < 10 µM | < 10000 nM | < 10 µM |
| Nc1nc2cc(-c3ccc4ncn(C5CC5)c(=O)c4c3)ccc2o1 [Compound 254] | < 1000 nM | > 10 µM | < 1000 nM | > 10 µM |
| Nc1nc2cc(-c3ccc4ncn(CCN5CCCC5)c(=O)c4c3)ccc2o1 [Compound 255] | < 10000 nM | < 10 µM | < 10000 nM | < 10 µM |
| Nc1nc2cc(-c3ccc4ncn(C5CCCC5)c(=O)c4c3)ccc2o1 [Compound 256] | < 10000 nM | > 10 µM | > 10000 nM | > 10 µM |
| NC(=O)[C@@H]1CCCN1c1cnc2ccc(-c3ccc4oc(N)nc4c3)cc2n1 [Compound 257] | < 100 nM | > 10 µM | > 10000 nM | > 10 µM |
